According to the RepoRT retention time repository (doi:10.1016/j.jchromb.2020.122105):

Tests used:
Conditions in all cases: stereoisomer not certain
[1] = HILIC, Waters XBridge BEH Amide, 100 × 2.1 mm, 2.5 µm, 0.5 mL/min, estimated dead time 0.44 min; A: water + 0.1% acetic acid + 10 mM ammonium acetate, pH 4; B: 5% water + 95% acetonitrile + 0.1% acetic acid + 10 mM ammonium acetate, pH 4; gradient (min/%B) 0/95 5/95 20/57 25/57 30/95 40/95
[2] = HILIC, Merck SeQuant ZIC-HILIC, 150 × 2.1 mm, 5 µm, 0.75 mL/min, estimated dead time 0.44 min; A: water + 10 mM ammonium formate, pH 6; B: 5% water + 95% acetonitrile + 10 mM ammonium formate, pH 6; gradient (min/%B) 0/95 5/95 20/57 25/57 30/95 40/95
[3] = RP, Waters CORTECS T3, 100 × 2.1 mm, 2.7 µm, 0.2 mL/min, estimated dead time 1.1 min; A: water + 0.045% formic acid + 0.11% ammonium hydroxide, pH 7; B: methanol; gradient (min/%B) 0/5 5/5 25/95 25.1/100 35/100 35.1/5 45/5
[4] = RP, Waters ACQUITY UPLC BEH C18, 100 × 2.1 mm, 1.7 µm, 0.1 mL/min, estimated dead time 2.2 min; A: water + 0.045% formic acid + 0.11% ammonium hydroxide, pH 7; B: methanol; gradient (min/%B) 0/5 5/5 25/95 25.1/100 35/100 35.1/5 45/5
[5] = HILIC, Merck SeQuant ZIC-HILIC, 150 × 2.1 mm, 5 µm, 0.75 mL/min, estimated dead time 0.44 min; A: water + 0.1% acetic acid + 10 mM ammonium acetate, pH 4; B: 5% water + 95% acetonitrile + 0.1% acetic acid + 10 mM ammonium acetate, pH 4; gradient (min/%B) 0/95 5/95 20/57 25/57 30/95 40/95
[6] = RP, Waters ACQUITY UPLC BEH C18, 100 × 2.1 mm, 1.7 µm, 0.1 mL/min, estimated dead time 2.2 min; A: water + 0.1% formic acid, pH 3; B: methanol + 0.1% formic acid, pH 3; gradient (min/%B) 0/5 5/5 25/95 25.1/100 35/100 35.1/5 45/5
[7] = RP, Waters CORTECS T3, 100 × 2.1 mm, 2.7 µm, 0.2 mL/min, estimated dead time 1.1 min; A: water + 0.1% formic acid, pH 3; B: methanol + 0.1% formic acid, pH 3; gradient (min/%B) 0/5 5/5 25/95 25.1/100 35/100 35.1/5 45/5
[8] = RP, Thermo Scientific Hypercarb, 150 × 2.1 mm, 5 µm, 0.1 mL/min, estimated dead time 3.3 min; A: water + 0.1% formic acid, pH 3; B: methanol + 0.1% formic acid, pH 3; gradient (min/%B) 0/5 5/5 20/100 35/100 35.1/5 45/5
[9] = RP, Waters ACQUITY UPLC BEH C18, 100 × 2.1 mm, 1.7 µm, 0.1 mL/min, estimated dead time 2.2 min; A: water + 0.1% formic acid, pH 3; B: methanol + 0.1% formic acid, pH 3; gradient (min/%B) 0/5 5/5 25/100 30/100 30.1/5 35/5
[10] = RP, Waters ACQUITY UPLC BEH C18, 100 × 2.1 mm, 1.7 µm, 0.2 mL/min, estimated dead time 1.1 min; A: water + 0.025% formic acid + 20 mM ammonium acetate + 0.055% ammonium hydroxide, pH 7; B: methanol; gradient (min/%B) 0/5 5/5 25/100 30/100 30.1/5 35/5
[11] = RP, Waters CORTECS T3, 100 × 2.1 mm, 2.7 µm, 0.3 mL/min, estimated dead time 0.73 min; A: water + 0.1% formic acid, pH 3; B: methanol + 0.1% formic acid, pH 3; gradient (min/%B) 0/5 5/5 25/100 30/100 30.1/5 35/5
[12] = RP, Waters CORTECS T3, 100 × 2.1 mm, 2.7 µm, 0.1 mL/min, estimated dead time 2.2 min; A: water + 0.1% formic acid, pH 3; B: methanol + 0.1% formic acid, pH 3; gradient (min/%B) 0/5 5/5 25/95 25.1/100 35/100 35.1/5 45/5
[13] = RP, Waters CORTECS T3, 100 × 2.1 mm, 2.7 µm, 0.2 mL/min, estimated dead time 1.1 min; A: water + 0.1% formic acid, pH 3; B: methanol + 0.1% formic acid, pH 3; gradient (min/%B) 0/0 1/0 6/5 30/100 35/100 35.1/0 40/0
[14] = RP, Waters CORTECS T3, 100 × 2.1 mm, 2.7 µm, 0.15 mL/min, estimated dead time 1.5 min; A: water + 0.1% formic acid, pH 3; B: methanol + 0.1% formic acid, pH 3; gradient (min/%B) 0/0 1/0 6/5 30/100 35/100 35.1/0 40/0
[15] = RP, Waters CORTECS T3, 100 × 2.1 mm, 2.7 µm, 0.3 mL/min, estimated dead time 0.73 min; A: water + 0.1% formic acid, pH 3; B: methanol + 0.1% formic acid, pH 3; gradient (min/%B) 0/5 5/5 25/95 25.1/100 35/100 35.1/5 45/5
[16] = RP, Waters CORTECS T3, 100 × 2.1 mm, 2.7 µm, 0.3 mL/min, estimated dead time 0.73 min; A: water + 0.1% formic acid, pH 3; B: methanol + 0.1% formic acid, pH 3; gradient (min/%B) 0/0 5/0 25/100 30/100 30.1/0 35/0
[17] = RP, Waters CORTECS T3, 100 × 2.1 mm, 2.7 µm, 0.1 mL/min, estimated dead time 2.2 min; A: water + 0.1% formic acid, pH 3; B: methanol + 0.1% formic acid, pH 3; gradient (min/%B) 0/0 1/0 6/5 30/100 35/100 35.1/0 40/0
[18] = RP, Waters CORTECS T3, 100 × 2.1 mm, 2.7 µm, 0.3 mL/min, estimated dead time 0.73 min; A: water + 0.1% formic acid, pH 3; B: methanol + 0.1% formic acid, pH 3; gradient (min/%B) 0/0 1/0 6/5 30/100 35/100 35.1/0 40/0
[19] = RP, Waters CORTECS T3, 100 × 2.1 mm, 2.7 µm, 0.25 mL/min, estimated dead time 0.88 min; A: water + 0.1% formic acid, pH 3; B: methanol + 0.1% formic acid, pH 3; gradient (min/%B) 0/0 1/0 6/5 30/100 35/100 35.1/0 40/0
[20] = RP, Waters ACQUITY UPLC BEH C18, 100 × 2.1 mm, 1.7 µm, 0.2 mL/min, estimated dead time 1.1 min; A: water + 0.025% formic acid + 20 mM ammonium acetate + 0.055% ammonium hydroxide, pH 7; B: methanol; gradient (min/%B) 0/5 5/5 25/100 30/100 30.1/5 35/5; remark: listed apart in the source
[21] = RP, Waters CORTECS T3, 100 × 2.1 mm, 2.7 µm, 0.3 mL/min, estimated dead time 0.73 min; A: water + 0.1% formic acid, pH 3; B: methanol + 0.1% formic acid, pH 3; gradient (min/%B) 0/0 5/0 25/100 30/100 30.1/0 35/0; remark: listed apart in the source
[22] = RP, Waters CORTECS T3, 100 × 2.1 mm, 2.7 µm, 0.25 mL/min, estimated dead time 0.88 min; A: water + 0.1% formic acid, pH 3; B: methanol + 0.1% formic acid, pH 3; gradient (min/%B) 0/5 5/5 25/95 25.1/100 35/100 35.1/5 45/5
[23] = RP, Waters ACQUITY UPLC BEH C18, 100 × 2.1 mm, 1.7 µm, 0.2 mL/min, estimated dead time 1.1 min; A: water + 0.1% formic acid, pH 3; B: methanol + 0.1% formic acid, pH 3; gradient (min/%B) 0/5 5/5 25/100 30/100 30.1/5 35/5
[24] = RP, Waters CORTECS T3, 100 × 2.1 mm, 2.7 µm, 0.2 mL/min, estimated dead time 1.1 min; A: water + 0.1% formic acid, pH 3; B: methanol + 0.1% formic acid, pH 3; gradient (min/%B) 0/0 1/0 6/5 30/100 35/100 35.1/0 40/0; remark: listed apart in the source
[25] = RP, Waters CORTECS T3, 100 × 2.1 mm, 2.7 µm, 0.3 mL/min, estimated dead time 0.73 min; A: water + 0.1% formic acid, pH 3; B: methanol + 0.1% formic acid, pH 3; gradient (min/%B) 0/0 1/0 6/5 30/100 35/100 35.1/0 40/0; remark: listed apart in the source

Structure (SMILES) | LC retention time [1] [min] | LC retention time [2] [min] | LC retention time [5] [min] | LC retention time [6] [min] | LC retention time [7] [min] | also measured
CCCCCCCCCCCCCCCC(=O)OCC(COP(=O)(O)OCCN)OC(=O)CCCCCCCCCCCCCCC (racemic) [1,2-DIPALMITOYL-RAC-GLYCERO-3-PHOSPHOETHANOLAMINE] | 6.05 | 7.77 | – | – | – | LC retention time [3]: 28.7 min; LC retention time [4]: 36.9 min
C=CC1=C(C)C(=Cc2[nH]c(Cc3[nH]c(C=C4NC(=O)C(C)=C4C=C)c(C)c3CCC(=O)O)c(CCC(=O)O)c2C)NC1=O [BILIRUBIN] | – | 1.06 | 1.32 | – | – | LC retention time [3]: 24.4 min; LC retention time [4]: 26.9 min
OCC1OC(OCC2OC(OC3(CO)OC(CO)C(O)C3O)C(O)C(O)C2O)C(O)C(O)C1O [D-(+)-RAFFINOSE] | – | – | – | 2.67 | 2.67 | –
O=C([O-])[C@H](O)[C@@H](O)[C@H](O)[C@H](O)CO [D-GLUCONATE] | 17 | 13 | 12.9 | – | 2.58 | –
NC(C(=O)O)C(O)C(O)C(O)CO (stereo not given) [GLUCOSAMINATE] | 14.7 | 14.3 | 14.2 | – | 2.45 | LC retention time [8]: 4.77 min
O=c1[nH]cnc2nc[nH]c12 [HYPOXANTHINE] | 3.97 | 3.94 | – | – | – | LC retention time [9]: 2.8 min; LC retention time [10]: 1.38 min; LC retention time [11]: 1.33 min; LC retention time [12]: 2.72 min
N[C@@H](CS(=O)(=O)O)C(=O)O [L-CYSTEIC ACID] | 13.4 | 13.4 | 13.4 | – | 2.49 | LC retention time [8]: 19.4 min

The next lines start with results.

LC retention time [1] [min] | LC retention time [2] [min] | LC retention time [5] [min] | LC retention time [6] [min] | LC retention time [7] [min] | Structure (SMILES) | also measured
0.63 | – | – | – | – | COc1ccc2[nH]cc(CCNC(C)=O)c2c1 [MELATONIN] | LC retention time [13]: 16.2 min; LC retention time [14]: 17.5 min; LC retention time [3]: 14.5 min; LC retention time [9]: 17.6 min; LC retention time [15]: 13.1 min; LC retention time [10]: 14.4 min; LC retention time [16]: 13.6 min; LC retention time [4]: 17.8 min; LC retention time [17]: 14.4 min; LC retention time [11]: 12.8 min; LC retention time [18]: 14.8 min; LC retention time [19]: 15.4 min; LC retention time [20]: 14.4 min; LC retention time [12]: 17.7 min
12.1 | – | 11.8 | 2.7 | 2.67 | CC(=O)NC(CC(N)=O)C(=O)O [N-ALPHA-ACETYL-L-ASPARAGINE] | LC retention time [21]: 0.89 min; LC retention time [22]: 1.08 min; LC retention time [23]: 1.38 min; LC retention time [24]: 1.35 min
– | 12.3 | 12.2 | 2.67 | 2.64 | O=C(O)C1(O)CC(O)C(O)C(O)C1 (stereo not given) [QUINATE] | LC retention time [21]: 0.89 min; LC retention time [23]: 1.38 min; LC retention time [24]: 1.35 min
– | – | 12.3 | 2.67 | 2.67 | Nc1ncnc2c1ncn2[C@@H]1O[C@H](CSCC[C@H]([NH3+])C(=O)[O-])[C@@H](O)[C@H]1O [S-(5'-ADENOSYL)-L-HOMOCYSTEINE] | LC retention time [13]: 1.34 min; LC retention time [9]: 2.74 min; LC retention time [15]: 0.9 min; LC retention time [23]: 1.38 min; LC retention time [19]: 1.09 min
11.4 | 12.3 | 12 | – | 2.48 | NCCS(=O)(=O)O [TAURINE] | –
14 | – | 13.6 | 2.7 | 2.67 | O=c1ccn(C2OC(COP(=O)(O)O)C(O)C2O)c(=O)[nH]1 (stereo not given) [URIDINE-5-MONOPHOSPHATE] | LC retention time [21]: 0.89 min; LC retention time [25]: 0.92 min; LC retention time [22]: 1.08 min; LC retention time [24]: 1.35 min
